According to patent US20260297118A1, “SUBSTITUTED PYRIMIDINONE AND AZAPYRIMIDINONE COMPOUNDS, COMPOSITIONS, AND USES THEREOF” (LAKEWOOD AMEDEX, INC., priority 2023, published 2026):
Like-named read-outs stand apart in the source and are kept apart here.

Legend:
Type in all cases: cell-based
[1] = test system: Staphylococcus aureus (43330); assay: MIC, broth microdilution, Staphylococcus aureus (43330); conditions: pH 3, Mueller Hinton Broth, 18 to 24 hours
Description: (§1) MIC testing is conducted using the broth (Mueller Hinton Broth) microdilution procedures relevant to each organism group as established by the Clinical and Laboratory Standards Institute (CLSI; 3-7). MIC plates are prepared in accordance with CLSI (3-7). To prepare the test plates, automated liquid handlers are used to conduct serial dilutions and liquid transfers. Automated liquid handlers utilized in this study include the Multidrop 384 (Labsystems, Helsinki, Finland) and the Biomek 2000 (Beckman Coulter, Fullerton CA). The solution is diluted to desired pH using 1 M Citric Acid or 1 M NaOH buffer. A standardized inoculum of each test organism is prepared per CLSI methods (3, 5-7) to equal a 0.5 McFarland standard in the appropriate media followed by an additional 1:20 dilution (1:10 for anaerobes).
(§2) The plates are then inoculated with 10 μL of the diluted 0.5 McFarland suspension using the Biomek 2000 from low to high drug concentration, resulting in a final concentration of approximately 5×10^5 CFU/mL per well. An un-inoculated plate is incubated for the purpose of assessing solubility of the drug in the test media. The plates are stacked 3 to 4 high, covered with a sterile lid on the top plate, and incubated for 18 to 24 hours according to CLSI. The MIC is recorded as the lowest concentration of respective compound that inhibited visible growth of the organism.

Escherichia coli (25922) = assay: MIC, broth microdilution, Escherichia coli (25922); conditions: pH 3, Mueller Hinton Broth, 18 to 24 hours
Description: as §1, §2

[2] = test system: Pseudomonas aeruginosa (27853); assay: MIC, broth microdilution, Pseudomonas aeruginosa (27853); conditions: pH 3, Mueller Hinton Broth, 18 to 24 hours
Description: as §1, §2

Candida albicans (22972) = assay: MIC, broth microdilution, Candida albicans (22972); conditions: pH 3, Mueller Hinton Broth, 18 to 24 hours
Description: as §1, §2

E. faecalis ATCC-29212 = assay: MIC, broth microdilution, E. faecalis ATCC-29212; design: unit not given beside the values; conditions: E. faecalis ATCC-29212, Gram +ve; pH 3; 18 to 24 hours
Description: as §1, §2

E. faecalis MMX-3353 = assay: MIC, broth microdilution, E. faecalis MMX-3353; conditions: E. faecalis MMX-3353, Gram +ve; pH 3; 18 to 24 hours
Description: as §1, §2

E. faecium ATCC-35667 = assay: MIC, broth microdilution, E. faecium ATCC-35667; conditions: E. faecium ATCC-35667, Gram +ve; pH 3; 18 to 24 hours
Description: as §1, §2

E. faecium MMX-3355 = assay: MIC, broth microdilution, E. faecium MMX-3355; design: unit not given beside the values; conditions: E. faecium MMX-3355, Gram +ve; pH 3; 18 to 24 hours
Description: as §1, §2

S. agalactiae ATCC-13813 = assay: MIC, broth microdilution, S. agalactiae ATCC-13813; design: unit not given beside the values; conditions: S. agalactiae ATCC-13813, Gram +ve; pH 3; 18 to 24 hours
Description: as §1, §2

S. aureus ATCC -3591 = assay: MIC, broth microdilution, S. aureus ATCC -3591; design: unit not given beside the values; conditions: S. aureus ATCC -3591, Gram +ve; pH 3; 18 to 24 hours
Description: as §1, §2

S. aureus ATCC-29213 = assay: MIC, broth microdilution, S. aureus ATCC-29213; design: unit not given beside the values; conditions: S. aureus ATCC-29213, Gram +ve; pH 3; 18 to 24 hours
Description: as §1, §2

[3] = test system: S. dysgalactiae ATCC-6644; assay: MIC, broth microdilution, S. dysgalactiae ATCC-6644; design: unit not given beside the values; conditions: S. dysgalactiae ATCC-6644, Gram +ve; pH 3; 18 to 24 hours
Description: as §1, §2

[4] = test system: S. haemolyticus ATCC-29970; assay: MIC, broth microdilution, S. haemolyticus ATCC-29970; conditions: S. haemolyticus ATCC-29970, Gram +ve; pH 3; 18 to 24 hours
Description: as §1, §2

S. pyogenes ATCC-49399 = assay: MIC, broth microdilution, S. pyogenes ATCC-49399; design: unit not given beside the values; conditions: S. pyogenes ATCC-49399, Gram +ve; pH 3; 18 to 24 hours
Description: as §1, §2

[5] = test system: S. saprophyticus ATCC-49907; assay: MIC, broth microdilution, S. saprophyticus ATCC-49907; design: unit not given beside the values; conditions: S. saprophyticus ATCC-49907, Gram +ve; pH 3; 18 to 24 hours
Description: as §1, §2

A. baumannii ATCC-19606 = assay: MIC, broth microdilution, A. baumannii ATCC-19606; design: unit not given beside the values; conditions: A. baumannii ATCC-19606, Gram −ve; pH 3; 18 to 24 hours
Description: as §1, §2

[6] = test system: A. radioresistens MMX-8551; assay: MIC, broth microdilution, A. radioresistens MMX-8551; design: unit not given beside the values; conditions: A. radioresistens MMX-8551, Gram −ve; pH 3; 18 to 24 hours
Description: as §1, §2

C. freundii CDC-0157 = assay: MIC, broth microdilution, C. freundii CDC-0157; design: unit not given beside the values; conditions: C. freundii CDC-0157, Gram −ve; pH 3; 18 to 24 hours
Description: as §1, §2

C. striatum ATCC-6940 = assay: MIC, broth microdilution, C. striatum ATCC-6940; conditions: C. striatum ATCC-6940, Gram +ve; pH 3; 18 to 24 hours
Description: as §1, §2

E. cloacae ATCC BAA-2468 = assay: MIC, broth microdilution, E. cloacae ATCC BAA-2468; design: unit not given beside the values; conditions: E. cloacae ATCC BAA-2468, Gram −ve; pH 3; 18 to 24 hours
Description: as §1, §2

E. coli ATCC-25922 = assay: MIC, broth microdilution, E. coli ATCC-25922; design: unit not given beside the values; conditions: E. coli ATCC-25922, Gram −ve; pH 3; 18 to 24 hours
Description: as §1, §2

E. coli MMX-8870 = assay: MIC, broth microdilution, E. coli MMX-8870; conditions: E. coli MMX-8870, Gram −ve; pH 3; 18 to 24 hours
Description: as §1, §2

H. influenzae ATCC-49247 = assay: MIC, broth microdilution, H. influenzae ATCC-49247; design: unit not given beside the values; conditions: H. influenzae ATCC-49247, Gram −ve; pH 3; 18 to 24 hours
Description: as §1, §2

[7] = test system: K. pneumoniae ATCC BAA-2146; assay: MIC, broth microdilution, K. pneumoniae ATCC BAA-2146; design: unit not given beside the values; conditions: K. pneumoniae ATCC BAA-2146, Gram −ve; pH 3; 18 to 24 hours
Description: as §1, §2

K. pneumoniae ATCC-43816 = assay: MIC, broth microdilution, K. pneumoniae ATCC-43816; design: unit not given beside the values; conditions: K. pneumoniae ATCC-43816, Gram −ve; pH 3; 18 to 24 hours
Description: as §1, §2

M. morganii CDC-0519 = assay: MIC, broth microdilution, M. morganii CDC-0519; design: unit not given beside the values; conditions: M. morganii CDC-0519, Gram −ve; pH 3; 18 to 24 hours
Description: as §1, §2

P. aeruginosa ATCC-27853 = assay: MIC, broth microdilution, P. aeruginosa ATCC-27853; design: unit not given beside the values; conditions: P. aeruginosa ATCC-27853, Gram −ve; pH 3; 18 to 24 hours
Description: as §1, §2

P. mirabilis CDC-0155 = assay: MIC, broth microdilution, P. mirabilis CDC-0155; design: unit not given beside the values; conditions: P. mirabilis CDC-0155, Gram −ve; pH 3; 18 to 24 hours
Description: as §1, §2

Compound | MIC ([1]; read-out: MIC) [mg/mL] | MIC (Escherichia coli (25922); read-out: MIC) [mg/mL] | MIC ([2]; read-out: MIC) [µg/mL] | MIC (Candida albicans (22972); read-out: MIC) [mg/mL] | MIC (E. faecalis ATCC-29212) | MIC (E. faecalis MMX-3353) | MIC (E. faecium ATCC-35667) | MIC (E. faecium MMX-3355) | MIC (S. agalactiae ATCC-13813) | MIC (S. aureus ATCC -3591) | MIC (S. aureus ATCC-29213) | MIC [3] | MIC [4] | MIC (S. pyogenes ATCC-49399) | MIC [5] | MIC (A. baumannii ATCC-19606) | MIC [6] | MIC (C. freundii CDC-0157) | MIC (C. striatum ATCC-6940) | MIC (E. cloacae ATCC BAA-2468) | also measured
Nc1ccn([C@H]2C[C@H](O)[C@@H](COP(=O)(O)OCCCC(F)(F)F)O2)c(=O)n1 [LAI-005, ((2R,3S,5R)-5-(4-amino-2-oxopyrimidin-1(2H)-yl)-3-hydroxytetrahydrofuran-2-yl)methyl (4,4,4-trifluorobutyl) hydrogen phosphate] | 50 | 25 | 25000 | – | – | – | – | – | – | – | – | – | – | – | – | – | – | – | – | – | –
CCCCOP(=O)(O)OC[C@H]1O[C@@H](n2ccc(N)nc2=O)C(F)(F)[C@@H]1O [LAI-006, ((2R,3R,5R)-5-(4-amino-2-oxopyrimidin-1(2H)-yl)-4,4-difluoro-3-hydroxytetrahydrofuran-2-yl)methyl butyl hydrogen phosphate] | 2.3 | 0.6 | 800 | 50 | 0.39 | 3.13 | 1.56 | 3.13 | 0.10 | 3.13 | 1.56 | 0.05 | 0.10 | 0.39 | 0.10 | 0.39 | 0.39 | 3.13 | 0.78 | 0.39 | MIC (E. coli ATCC-25922): 0.39; MIC (E. coli MMX-8870): 0.78; MIC (H. influenzae ATCC-49247): 0.78; MIC [7]: 0.78; MIC (K. pneumoniae ATCC-43816): 0.78; MIC (M. morganii CDC-0519): 3.13; MIC (P. aeruginosa ATCC-27853): 0.78; MIC (P. mirabilis CDC-0155): 3.13
CCCCOP(=O)(O)OC[C@@H]1CC[C@H](n2ccc(N)nc2=O)O1 [LAI-007, ((2S,5R)-5-(4-amino-2-oxopyrimidin-1(2H)-yl)tetrahydrofuran-2-yl)methyl butyl hydrogen phosphate] | 5 | 25 | 5000 | – | 6.25 | 6.25 | 6.25 | 6.25 | 1.56 | 6.25 | 6.25 | 12.50 | 6.25 | 3.13 | 3.13 | 6.25 | 6.25 | 3.13 | 1.56 | 6.25 | MIC (E. coli ATCC-25922): 6.25; MIC (E. coli MMX-8870): 12.50; MIC (H. influenzae ATCC-49247): 1.56; MIC [7]: 6.25; MIC (K. pneumoniae ATCC-43816): 12.50; MIC (M. morganii CDC-0519): 3.13; MIC (P. aeruginosa ATCC-27853): 8.75; MIC (P. mirabilis CDC-0155): 3.13
CCCCOP(=O)(O)OC[C@H]1O[C@@H](n2ccc(NC)nc2=O)C[C@@H]1O [LAI-009, butyl (((2R,3S,5R)-3-hydroxy-5-(4-(N-methylamino)-2-oxopyrimidin-1(2H)-yl)tetrahydrofuran-2-yl)methyl) hydrogen phosphate] | 25 | 25 | 5000 | 50 | – | – | – | – | – | – | – | – | – | – | – | – | – | – | – | – | –
(2R,3S,5R)-5-(4-amino-2-oxopyridizin-1(2H)-yl)-3-hydroxytetrahydrofuran-2-methyl butyl phosphate [LAI-011] | – | – | – | – | – | – | – | – | – | – | – | – | – | – | – | – | – | – | – | – | MIC [1]: 25 mg/mL; MIC (Escherichia coli (25922)): 25 mg/mL; MIC [2]: 5000 µg/mL; MIC (Candida albicans (22972)): 5 mg/mL
